# Laboratory results taken from US4312867A, “Antibacterial compounds, processes for their preparation and compositions containing them” (Beecham Group Limited, priority 1979, dated 1982).
# How the values were obtained:
# Format in all cases: cell-based
# [1] = test system: E. coli NCTC 10418; assay: MIC human bacteria (Table 1), serial dilution in nutrient agar; conditions: Escherichia coli, NCTC10418
# [2] = test system: E. coli ESS; assay: as above; conditions: Escherichia coli; E. coli ESS; nutrient agar with 5% chocolated horse blood; read-out: MIC
# [3] = test system: P. mirabilis 889; assay: as above; conditions: Proteus mirabilis, 889
# [4] = test system: K. aerogenes A; assay: as above; conditions: Klebsiella aerogenes, nutrient agar with 5% chocolated horse blood
# [5] = test system: Ps. aeruginosa 10662; assay: as above; conditions: Pseudomonas aeruginosa, nutrient agar with 5% chocolated horse blood
# [6] = test system: Pasteurella multocida 1633; assay: as above; conditions: Pasteurella multocida, 1633
# [7] = test system: Haemophilus influenzae Q1; assay: as above; conditions: Haemophilus influenzae, Q1
# [8] = test system: Haemophilus influenzae Wy21; assay: as above; conditions: Haemophilus influenzae, WY21
# [9] = test system: Bacillus subtilis 6633; assay: as above; conditions: nutrient agar with 5% chocolated horse blood
# [10] = test system: Corynebacterium xerosis 9755; assay: as above; conditions: nutrient agar with 5% chocolated horse blood, read-out: MIC
# [11] = test system: Sarcina lutea 8340; assay: as above; conditions: Micrococcus luteus, nutrient agar with 5% chocolated horse blood, read-out: MIC
# [12] = test system: Staph aureus Oxford; assay: as above; conditions: Staphylococcus aureus, nutrient agar with 5% chocolated horse blood
# [13] = test system: Staph aureus Russell; assay: as above; conditions: Staphylococcus aureus, nutrient agar with 5% chocolated horse blood
# [14] = test system: Staph aureus W2827; assay: as above; conditions: Staphylococcus aureus, nutrient agar with 5% chocolated horse blood
# [15] = test system: Strep faecalis I; assay: as above; conditions: nutrient agar with 5% chocolated horse blood
# [16] = test system: Strep pyogenes A 64/848; assay: as above; conditions: nutrient agar with 5% chocolated horse blood
# [17] = test system: Strep pyogenes B 2788; assay: as above; conditions: nutrient agar with 5% chocolated horse blood
# [18] = test system: Strep pyogenes C 2761; assay: as above; conditions: nutrient agar with 5% chocolated horse blood
# [19] = test system: E. coli NCTC 10418; assay: MIC veterinary bacteria (Table 2), serial dilution in agar; conditions: Escherichia coli, NCTC10418
# [20] = test system: E. coli E1; assay: as above; conditions: Escherichia coli, diagnostic sensitivity test agar
# [21] = test system: S. dublin S7; assay: as above; conditions: Salmonella enterica, diagnostic sensitivity test agar
# [22] = test system: S. typhimurium S18; assay: as above; conditions: Salmonella enterica, diagnostic sensitivity test agar
# [23] = test system: Bord bronchiseptica B08; assay: as above; conditions: diagnostic sensitivity test agar
# [24] = test system: Bord bronchiseptica B09; assay: as above; conditions: diagnostic sensitivity test agar
# [25] = test system: Past multocida PA1; assay: as above; conditions: diagnostic sensitivity test agar
# [26] = test system: Past multocida PA2; assay: as above; conditions: diagnostic sensitivity test agar
# [27] = test system: Past haemolytica PA5; assay: as above; conditions: diagnostic sensitivity test agar
# [28] = test system: Erysipelothrix rhusiopathiae NCTC 8163; assay: as above; conditions: NCTC8163; Erysipelothrix rhusiopathiae NCTC 8163; diagnostic sensitivity test agar; read-out: MIC
# [29] = test system: Corynebacterium pyogenes CY1; assay: as above; conditions: Trueperella pyogenes, diagnostic sensitivity test agar
# [30] = test system: Staph aureus B4 (pen. resis); assay: as above; conditions: Staphylococcus aureus
# [31] = test system: Staph aureus 152 (pen. sens); assay: as above; conditions: Staphylococcus aureus, diagnostic sensitivity test agar
# [32] = test system: Staph aureus Oxford; assay: as above; conditions: Staphylococcus aureus
# [33] = test system: Strep suis (group D) SPS11; assay: as above; conditions: diagnostic sensitivity test agar
# [34] = test system: Strep uberis SPU1; assay: as above; conditions: diagnostic sensitivity test agar
# [35] = test system: Strep dysgalaciae SPD1; assay: as above; conditions: diagnostic sensitivity test agar
# [36] = test system: Strep agalactiae SPA1; assay: as above; conditions: diagnostic sensitivity test agar
# [37] = test system: M dispar H225; assay: in vitro anti-mycoplasmal MIC, Friis' broth (Table 3)
# Method: (§1) The minimum inhibitory concentrations (MIC) of the examples were determined by either:
# (§2) (i) in Friis' broth using microtitre plates, by modification of the metabolic-inhibition test (Taylor-Robinson, Post Frad, Med. J., 1967, 43, 100).
# [38] = test system: M dispar NCTC 10125; assay: as above
# Method: as §1, §2
# [39] = test system: M fermentans MWKL4; assay: as above
# Method: as §1, §2
# [40] = test system: M pneumoniae 427a; assay: as above
# Method: as §1, §2
# [41] = test system: M pneumoniae ATCC 15492; assay: as above
# Method: as §1, §2
# [42] = test system: M pulmonis JB; assay: as above
# Method: as §1, §2
# [43] = test system: M suipneumoniae J2206/183b; assay: as above
# Method: as §1, §2
# [44] = test system: M suipneumoniae Str 11; assay: as above
# Method: as §1, §2
# [45] = test system: M alkalescens NCTC 10135; assay: in vitro anti-mycoplasmal MIC, Friis' agar (Table 3)
# Method: as §1
# (§3) or (ii) by serial dilution in Friis' agar medium.
# [46] = test system: M arthritidis ATCC 14124; assay: as above
# Method: as §1, §3
# [47] = test system: M bovigenitalium ATCC 14173; assay: as above
# Method: as §1, §3
# [48] = test system: M fermentans MWKL4; assay: as above
# Method: as §1, §3
# [49] = test system: M gallisepticum S6; assay: as above
# Method: as §1, §3
# [50] = test system: M hyorhinis ATCC 23234; assay: as above
# Method: as §1, §3
# [51] = test system: M hyosynoviae ATCC 25591; assay: as above
# Method: as §1, §3
# [52] = test system: M pneumoniae 427a; assay: as above
# Method: as §1, §3
# [53] = test system: M pneumoniae ATCC 15492; assay: as above
# Method: as §1, §3
# [54] = test system: M pulmonis JB; assay: as above
# Method: as §1, §3
# [55] = test system: M synoviae ATCC 25204; assay: as above
# Method: as §1, §3
smiles,measurement,setting,value
"C/C(=C\C(=O)OCCCS(N)(=O)=O)CC1OCC(CC2OC2C(C)C(C)O)C(O)C1O (stereo not shown) [Example 1, 3-Sulphamoylpropyl monate A]",MIC,[1],> 100 µg/mL
same,MIC,[2],25 µg/mL
same,MIC,[3],100 µg/mL
same,MIC,[4],> 100 µg/mL
same,MIC,[5],> 100 µg/mL
same,MIC,[6],0.5 µg/mL
same,MIC,[7],0.05 µg/mL
same,MIC,[8],0.05 µg/mL
same,MIC,[9],10 µg/mL
same,MIC,[10],> 100 µg/mL
same,MIC,[11],> 100 µg/mL
same,MIC,[12],50 µg/mL
same,MIC,[13],50 µg/mL
same,MIC,[14],100 µg/mL
same,MIC,[15],> 100 µg/mL
same,MIC,[16],0.5 µg/mL
same,MIC,[17],2.5 µg/mL
same,MIC,[18],2.5 µg/mL
same,MIC,[19],> 80 µg/mL
same,MIC,[20],> 80 µg/mL
same,MIC,[21],> 80 µg/mL
same,MIC,[22],> 80 µg/mL
same,MIC,[23],80 µg/mL
same,MIC,[24],20 µg/mL
same,MIC,[25],0.625 µg/mL
same,MIC,[26],0.156 µg/mL
same,MIC,[27],10 µg/mL
same,MIC,[28],> 80 µg/mL
same,MIC,[29],> 80 µg/mL
same,MIC,[30],40 µg/mL
same,MIC,[31],20 µg/mL
same,MIC,[32],40 µg/mL
same,MIC,[33],80 µg/mL
same,MIC,[34],1.25 µg/mL
same,MIC,[35],2.5 µg/mL
same,MIC,[36],2.5 µg/mL
same,MIC,[37],0.039 µg/mL
same,MIC,[38],0.078 µg/mL
same,MIC,[39],0.039 µg/mL
same,MIC,[40],2.5 µg/mL
same,MIC,[41],2.5 µg/mL
same,MIC,[42],0.02 µg/mL
same,MIC,[43],0.312 µg/mL
same,MIC,[44],0.078 µg/mL
same,MIC,[45],0.039 µg/mL
same,MIC,[46],> 10 µg/mL
same,MIC,[47],0.039 µg/mL
same,MIC,[48],0.078 µg/mL
same,MIC,[49],> 10 µg/mL
same,MIC,[50],0.312 µg/mL
same,MIC,[51],0.156 µg/mL
same,MIC,[52],2.5 µg/mL
same,MIC,[53],5 µg/mL
same,MIC,[54],0.039 µg/mL
same,MIC,[55],< 0.02 µg/mL
